The values below come from US20030130280A1, “Treatment of acute myeloid leukemia with indolinone compounds” (SUGEN, Inc., priority 2001, published 2003).

Experiment [1] relates to MV411 (ITD mutant FLT-3). Briefly: Apoptosis by PARP cleavage and caspase 3 staining, ITD-mutant cells. The note with it: PARP cleavage, caspase 3 staining. In kind it is cell-based. The procedure: (§1) Apoptosis was measured by analysis of PARP cleavage and by caspase 3 staining.
Experiment [2] deals with RS411 (wild type FLT-3). Briefly: Apoptosis by PARP cleavage and caspase 3 staining, wild type cells. The format is cell-based. The following applies: PARP cleavage, caspase 3 staining. How it is done: as §1
In experiment [3] the test system is OC1-AML5 cell line. Put plainly: Cell viability (trypan blue) and proliferation (alamar blue) with FLT-3 ligand. In kind it is cell-based. The note with it: trypan blue and alamar blue assays. The source says: The first cell line used was the OC1-AML5 cell line known to express the FLT-3 tyrosine kinase. This cell line was maintained in conventional medium containing cytokines to maintain growth in liquid culture. This cell line provides a model to assess activation and inhibition of FLT-3 signaling by FLT-3 ligand and compounds which may inhibit FLT-3. The biological consequences of FLT-3 can be assessed with this cell line.
The OC1-AML5 cell line which express FLT-3-wild type was obtained (Pharmacia).
For orientation: Alamar Blue is a resazurin reagent that responds to reducing activity.

Experiment [4] deals with RS4; 11. Put plainly: VEGF production, RS4;11 cells. In kind it is cell-based. The following applies: for VEGF %: 0 uM = 100.
In experiment [5] the test system is FLT-3-ITD. Put plainly: FLT-3 phosphorylation in resected xenograft tumors. In kind it is in vivo, athymic mice. The following applies: 4 hour treatment. How it is done: Tumor cells, MV411 in the example shown were implanted subcutaneously in the hindflank of athymic mice. […] For measurement of efficacy, tumor growth was measured at various subsequent time points using vernier calipers. For analysis of phosphorylation, tumors were resected following dosing (4 hours here), pulverized in liquid nitrogen and homogenized in lysis buffer. FLT-3 and Stat5 phosphorylation were measured by immunoprecipitation and Western blot analysis.
Athymic mice were injected subcutaneously with MV411 and RS411 cells to cause tumor formation.

The nature of experiment [6]: Bone marrow model, survival. The format is in vivo, NOD-SCID mice. The following applies: orally once daily. How it is done: NOD-SCID mice were pretreated with cyclophosphamide (Neosar, Pharmacia, Kalamazoo, Mich.) by intraperitoneal injection of 150 mg/kg/day for 2 days ^(46), followed by 24 hours of rest prior to intravenous (i.v.) injection of 5×10^6 cells via the tail vein. At experimental endpoints, mice were anesthetized, followed by terminal blood collection via intracardiac puncture. Bone marrow cell suspensions were prepared by flushing mouse femurs with cold, sterile PBS. For all studies, a paired Student's t test was used to assess differences between treated and control groups (P<0.05 was considered significant).

The target in experiment [7] is T1, Wild-type FLT-3 (Homo sapiens, UniProt P36888).
T1 construct: host or cells: RS411 (RS4;11)
T1 sequence (P36888 27-993): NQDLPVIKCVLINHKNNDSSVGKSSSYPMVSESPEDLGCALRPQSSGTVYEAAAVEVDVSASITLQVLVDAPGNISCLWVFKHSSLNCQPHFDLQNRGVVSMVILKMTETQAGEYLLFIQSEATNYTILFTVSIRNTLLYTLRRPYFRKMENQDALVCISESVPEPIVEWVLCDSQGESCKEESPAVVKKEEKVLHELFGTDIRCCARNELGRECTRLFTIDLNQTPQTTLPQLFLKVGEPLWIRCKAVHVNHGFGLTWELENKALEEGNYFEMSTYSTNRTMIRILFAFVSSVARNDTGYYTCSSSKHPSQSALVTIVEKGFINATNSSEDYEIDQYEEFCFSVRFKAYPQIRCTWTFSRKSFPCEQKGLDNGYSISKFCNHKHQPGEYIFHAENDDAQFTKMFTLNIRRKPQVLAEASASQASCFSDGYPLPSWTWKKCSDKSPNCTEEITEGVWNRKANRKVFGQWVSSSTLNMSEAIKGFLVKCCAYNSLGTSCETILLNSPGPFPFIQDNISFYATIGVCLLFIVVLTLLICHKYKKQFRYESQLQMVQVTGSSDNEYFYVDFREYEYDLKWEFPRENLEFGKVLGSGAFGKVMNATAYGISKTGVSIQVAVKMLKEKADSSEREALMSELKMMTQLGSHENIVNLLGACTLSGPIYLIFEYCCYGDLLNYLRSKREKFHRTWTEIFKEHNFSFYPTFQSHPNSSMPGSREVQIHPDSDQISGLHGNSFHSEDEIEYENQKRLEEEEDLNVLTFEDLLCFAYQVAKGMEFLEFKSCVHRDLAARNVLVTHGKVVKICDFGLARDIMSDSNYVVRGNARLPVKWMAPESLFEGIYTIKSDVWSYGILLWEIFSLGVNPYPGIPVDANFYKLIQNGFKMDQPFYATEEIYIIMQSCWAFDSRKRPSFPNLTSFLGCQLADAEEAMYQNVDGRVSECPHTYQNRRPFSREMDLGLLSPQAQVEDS
Put plainly: FLT-3 phosphorylation by immunoprecipitation/Western in RS411 cells. As to Wild-type FLT-3 (inhibition of phosphorylation): key: +++: very strong inhibition; ++: inhibition; +/−: weak inhibition; −: no inhibition. The format is cell-based. The procedure:
FLT-3 was immunoprecipitated from lysates with a commercially available antibody. Proteins were separated by SDS-polyacrylamide gel electrophoresis, transferred to membranes analyzed by Western blotting for phosphotyrosine and subsequently for total FLT-3 protein as control. […]
Immunoprecipitation and Western Blot (IP/W) analysis: Cells were lysed in lysis buffer (20 mM Tris, pH 7.5; 137 mM NaCl; 10% glycerol; 1% NP-40; 0.1% SDS; 2 mM EDTA) containing protease and phosphatase inhibitors (50 mM sodium fluoride, 1 mM sodium orthovanadate, 2 mM Pefabloc, […], […], […], 4 mM leupeptin, and 4 mM pepstatin A). Equivalent amounts of protein were separated by SDS-PAGE, then transferred to nitrocellulose membranes. For analysis of FLT3 phosphorylation, equivalent amounts of protein from each sample were immunoprecipitated overnight at 4*C. with an agarose-conjugated anti-FLT3 antibody (Santa Cruz Biotechnology, Santa Cruz, Calif.). Immune complexes were washed (150 mM NaCl, 1.5 mM MgCl2, 50 mM HEPES, pH 7.5, 10% glycerol, 0.1% Triton X-100, and 1 mM EGTA) and following SDS-PAGE, proteins were transferred to nitrocellulose membranes. Membranes were probed with an anti-phosphotyrosine antibody (Upstate, Lake Placid, N.Y. or Transduction Laboratories, Lexington, Ky.) and then stripped with Restore Western Blot Stripping Buffer (Pierce, Rockford, Ill.). Membranes were reprobed with an anti-FLT3 antibody (Santa Cruz Biotechnology). Stat5 antibodies for immunprecipitation and Western blot analysis were from Upstate Biotechnology and Transduction labs respectively.

Entries after “also recorded” stand apart in the source; their conditions may differ.

Turning to `CCN(CC)CCNC(=O)c1c(C)[nH]c(/C=C2\C(=O)Nc3ccc(F)cc32)c1C` [Compound 1, 5-(5-Fluoro-2-oxo-1,2-dihydro-indol-3-ylidenemethyl)-2,4-dimethyl-1H-pyrrole-3-carboxylic acid(2-diethylamino-ethyl)-amide], the apoptosis entry in experiment [1] and in experiment [2] was “causes apoptosis” throughout. The “inhibition of FLT-3 ligand increased cell numbers” value in experiment [3] is on record as “some inhibition”. Besides, the VEGF mean sd in experiment [4] (CMPD 1 0.00 uM) worked out at 32.82; in experiment [4] (CMPD 1 0.01 uM) it was 9.62; in experiment [4] (CMPD 1 0.1 uM), 1.24; in experiment [4] (CMPD 1 1 uM) it was 2.3; in experiment [4] (CMPD 1 10 uM), 2.94. The VEGF % is 31.0% in experiment [4] (CMPD 1 0.01 uM), 4.0% in experiment [4] (CMPD 1 0.1 uM), 7.4% in experiment [4] (CMPD 1 1 uM) and 9.5% in experiment [4] (CMPD 1 10 uM). For the same compound, the “activated FLT-3 in tumors” value in experiment [5] is listed as “completely inhibited; also recorded: inhibits”. The “dose with highest efficacy on survival” value in experiment [6] was determined as 20 mg/kg/day. Further, in experiment [6] (range of doses), the survival result is listed as “prolonged survival in a dose-dependent manner”. Besides, the “Wild-type FLT-3 (inhibition of phosphorylation)” value in experiment [7] (RS411 cells, IP/Western) was “++”. Besides, in experiment [7] (in words), the “inhibition of wild-type FLT-3 phosphorylation” value was “inhibits”.
